This is an account of results in patent EP4035684A1, “AFFINITY ILLUDOFULVENE CONJUGATES” (AF Chemical LLC, priority 2019, dated 2022).

The subject of data set [1] is MV522 cell line. The data set can be described thus: 48 hour exposure, growth or viability by Trypan Blue Exclusion assay, target cell line. It is filed as cell-based. The note with it: read-out: Mean IC50 value (nM) ± SD, N=3 unless otherwise indicated.
Data set [2] has as its system 8392B cell line. The data set can be described thus: Two hour toxicity: inhibition of DNA synthesis activity, nontarget cell line. It is filed as cell-based. The following applies: read-out: Mean IC50 value (nM) ± SD, N=3 unless otherwise indicated; 8392B Nontarget Cell Line; 2 hr exposure; 8392B nontarget cell line, 2 hr exposure; mean ± SD, N=3 unless otherwise indicated.

In data set [3] the test system is MV522 cell line. Nature of the data set: cells. Format: cell-based. The note with it: read-out: Mean IC50 value (nM) ± SD, N=3 unless otherwise indicated, MV522 Target Cell Line, 2 hr exposure, 2 hr exposure.
Data set [4] concerns 8392B cell line. The data set can be described thus: cells. It is filed as cell-based.
Data set [5] deals with NCI 60 cell line panel. The following applies: cited from earlier work; for Mean TGI cytostatic / GI50: mean over NCI DTP 60 cell lines; for GI50: read-out: Mean GI50 inhibition; for CC50: human, nci 60 cell lines.
Data set [6] relates to NCI 60 cell line panel. The data set can be described thus: NCI DTP 60 cell line screen assay. The note with it: for Cytotoxicity: ability to actually kill tumor cells versus only inhibiting growth. From the text: An ADC is engulfed by a tumor cell, transported to the endosomes (pH < 6.0) and then into the lysozomes (pH < 4). […] 4) Cancer cells can become resistant to various toxins and drugs through the development of what is termed multi-drug resistance. This process is known to occur through several different mechanisms.

For data set [7], the system named is Prostate LnCAP (positive PSA). Nature of the data set: Activity of PSA cleavable analogs against PSA positive cell line, 48 hour exposure. Format: cell-based. The following applies: N=3, mean ± SD.
The test system of data set [8] is Prostate DuPro (trace PSA). Nature of the data set: Activity of PSA cleavable analogs against trace PSA cell line, 48 hour exposure. Format: cell-based. The note with it: N=3, mean ± SD.
In data set [9] the test system is Prostate PC3 (negative PSA). The data set can be described thus: Activity of PSA cleavable analogs against PSA negative cell line, 48 hour exposure. It is filed as cell-based. The note with it: N=3, mean ± SD.
Setting [10] is: MV522 target cell line, mean ± SD, N=3 unless otherwise indicated.
Where [11] appears, read: read-out: Mean IC50 value (nM) ± SD, N=3 unless otherwise indicated, 8392B Nontarget Cell Line, 48 hr exposure, 8392B nontarget cell line, mean ± SD, N=3 unless otherwise indicated.

Where a SMILES comes first, the peptide text is derived from it. [ ]: non-standard residue; d: D form. The star is where a group is joined. ξ: configuration not given here. X4 = CC1=C(C*)C2=C(C)C3(CC3)[C@@](C)(O)C(=O)C2=C1; ξC = NC(CS)C(=O)O

One may read the IC50 as the midpoint of a concentration-inhibition curve. For `CC(=O)Oc1ccc(-n2nnnc2SCC2=C(C)C=C3C(=O)[C@](C)(O)C4(CC4)C(C)=C32)cc1` [compound 155], the IC50 with MV522 cell line [1] came to 3600 ± 400 nM; in the data set with 8392B cell line [2], 17000 nM; in the data set on MV522 cell line [3] (setting [10]), 8200 ± 1200 nM; with 8392B cell line [4] (setting [11]), 9100 ± 1100 nM.

As to `CC(=O)OCC1(C)C(OC(C)=O)C2=C(C)C3(CC3)C(C)(O)C(=O)C23CC31` (stereo not drawn) [compound 250], the IC50 is 137000 nM in the data set on MV522 cell line [1], greater than 275000 nM with 8392B cell line [2], 99000 nM in the data set with MV522 cell line [3] (setting [10]) and 137000 nM in the data set with 8392B cell line [4] (setting [11]).

For `CC1=C(CSC[C@H](NC(=O)[C@H](CCCNC(=N)N)NC(=O)CNC(=O)[C@H](CC(N)=O)NC(=O)[C@@H](N)CSCC2=C(C)C=C3C(=O)[C@](C)(O)C4(CC4)C(C)=C32)C(=O)O)C2=C(C)C3(CC3)[C@@](C)(O)C(=O)C2=C1` [compound 100] (H-C(X4)NGRC(X4)-OH), the IC50 in the data set on MV522 cell line [1] is 1700 ± 500 nM; with MV522 cell line [3] (setting [10]), greater than 10000 nM.

In general, GI50 refers to the concentration giving 50% growth inhibition. With `CO[C@@H]1[C@H](O)CC[C@]2(CO2)[C@H]1[C@@]1(C)O[C@@H]1CC=C(C)C` [Fumagillol], in the data set on NCI 60 cell line panel [5], the “Mean TGI cytostatic” value is on record as 9,850 nM and the 50% growth inhibitory concentration (GI50) was 6.13 µM.

With `COc1cc2cc(c1Cl)N(C)C(=O)C[C@H](OC(=O)[C@H](C)N(C)C(C)=O)[C@]1(C)O[C@H]1[C@H](C)[C@@H]1C[C@@](O)(NC(=O)O1)[C@H](OC)/C=C/C=C(\C)C2` [Maytansine], the “Mean TGI cytostatic” value in the data set with NCI 60 cell line panel [5] is 318 nM.

`COC(=O)C1=C(C(=O)OC)C23C=C(C)C1C2=C(C)C1(CC1)[C@@](C)(O)C3O` (stereo partly drawn) [compound 141]: the IC50 was determined as 3700 ± 800 nM in the data set on MV522 cell line [1] and 13700 ± 1900 nM in the data set on 8392B cell line [2].

On to `CC(=O)OCC1(C)C=C2C(=O)[C@](C)(O)C3(CC3)C(C)=C2C1O` (stereo partly drawn) [compound 159], for which the IC50 is 120 ± 10 nM in the data set on MV522 cell line [1]; 13700 nM with 8392B cell line [2]; 2700 ± 400 nM in the data set on MV522 cell line [3] (MV522, 2 h); less than 10 nM in the data set with 8392B cell line [4] (48 h, read-out: Mean IC50 value (nM) ± SD, N=3 unless otherwise indicated, 8392B Nontarget Cell Line, 48 hr exposure). In addition, the “MDR Activity” value in the data set with NCI 60 cell line panel [6] is reported as “Yes”. For the same compound, the Cytotoxicity result in the data set on NCI 60 cell line panel [6] is recorded as “Yes”.

As to `CC1=C(CCCOC(=O)NCCCl)C2=C(C)C3(CC3)[C@@](C)(O)C(=O)C2=C1` [compound 238], the IC50 in the data set on MV522 cell line [1] came out at 57 ± 8 nM; with MV522 cell line [3] (setting [10]), 780 ± 190 nM.

For the compound `CC1=C2C(=CC(C)(CO[Si](C)(C)C(C)(C)C)C2OC(=O)c2ccc(S(=O)(=O)F)cc2)C(=O)C(C)(O)C12CC2` (stereo not drawn) [compound 219], the IC50 was greater than 52 nM in the data set with MV522 cell line [1], greater than 52000 nM with 8392B cell line [2], greater than 52000 nM in the data set on MV522 cell line [3] (setting [10]) and greater than 52000 nM in the data set on 8392B cell line [4] (setting [11]).

For `CC1=C2C(=CC(C)(O)C2O)C(=NO)C(C)(O)C12CC2` (stereo not drawn) [compound 225], the half-maximal inhibitory concentration (IC50) in the data set on MV522 cell line [1] was 55000 nM; with 8392B cell line [2] it was greater than 350000 nM; in the data set with MV522 cell line [3] (setting [10]) it was 47000 nM; with 8392B cell line [4] (setting [11]) it was 33000 nM.

As for `CC1=CC2=C(C)C3(CC3)C(C)(O)C(=NO)C2=C1` (stereo not drawn) [compound 224], the IC50 with MV522 cell line [1] is greater than 130000 nM; in the data set on 8392B cell line [2] it was greater than 200000 nM; with MV522 cell line [3] (setting [10]) it was greater than 200000 nM; with 8392B cell line [4] (setting [11]), greater than 130000 nM.

One may read the CC50 as the concentration giving 50% cytotoxicity. `CC[C@H](C)[C@H](NC(=O)[C@H]1CCCCN1C)C(=O)N(COC(=O)CC(C)C)[C@H](C[C@@H](OC(C)=O)c1nc(C(=O)N[C@@H](Cc2ccc(O)cc2)C[C@H](C)C(=O)O)cs1)C(C)C` [Tubulysin A]: in the data set on NCI 60 cell line panel [5], the CC50 was greater than 10 µM, the “Mean TGI cytostatic” value was 1,318 nM and the GI50 is 0.012 µM.

Take `CC1=C(CSCC(N)C(=O)N[C@@H](CCCNC(=N)N)C(=O)NCC(=O)N[C@@H](CC(N)=O)C(=O)NC(CSCC2=C(C)C=C3C(=O)[C@](C)(O)C4(CC4)C(C)=C32)C(=O)O)C2=C(C)C3(CC3)[C@@](C)(O)C(=O)C2=C1` (stereo partly drawn) [compound 101] (H-[ξC](X4)RGN[ξC](X4)-OH): the values for the half-maximal inhibitory concentration (IC50) in the data set on MV522 cell line [1] and in the data set with MV522 cell line [3] (setting [10]) were greater than 7500 nM and greater than 8000 nM, respectively.

For `CC(=O)ON(C(C)=O)c1ccc(C(=O)OC[C@]2(C)C=C3C(=O)[C@](C)(O)C4(CC4)C(C)=C3C2OC(=O)c2ccc(N(OC(C)=O)C(C)=O)cc2)cc1` (stereo partly drawn) [compound 140], the IC50 with MV522 cell line [1] and in the data set with 8392B cell line [4] (setting [11]) was greater than 14000 nM throughout.

On to `CC1=C(Cn2ccc(=O)[nH]c2=O)C2=C(C)C3(CC3)[C@@](C)(O)C(=O)C2=C1` [compound 289], for which the IC50 was 530 ± 150 nM in the data set on MV522 cell line [1], greater than 290000 nM with 8392B cell line [2], 51 ± 4 nM in the data set on MV522 cell line [3] (setting [10]) and greater than 8800 nM with 8392B cell line [4] (setting [11]).

As to Halichondrin B, in the data set on NCI 60 cell line panel [5], the CC50 is greater than 1 µM and the “Mean TGI cytostatic” value was 199 nM.

Regarding `CC(=O)N1C[C@H](O)C[C@H]1C(=O)N[C@@H](CO)C(=O)N[C@@H](CO)C(=O)N[C@H](C(=O)N[C@@H](CCC(N)=O)C(=O)N[C@@H](CO)C(=O)N[C@@H](CO)C(=O)N1CCC[C@H]1C(=O)O[C@@H]1C2=C(C)C3(CC3)[C@@](C)(O)C(=O)C2=C[C@@]1(C)CO[Si](C)(C)C(C)(C)C)C1CCCCC1` [compound 215], the figures for the IC50 (in the data set on MV522 cell line [1]; in data set [7]) were 490 ± 120 nM and greater than 20 µM, respectively.

Regarding `COC(=O)C1=C(C(=O)OC)C23C=C(C)C1C2=C(C)C1(CC1)[C@@](C)(O)C3=O` (stereo partly drawn) [compound 142], the IC50 with MV522 cell line [1] was found to be 24 ± 7 nM. In the data set with NCI 60 cell line panel [6], the “MDR Activity” value was “Yes” and the Cytotoxicity result was “Yes”.

`C=C1C[C@H]2C=Nc3cc(OCCCOc4cc5c(cc4OC)C(=O)N4CC(=C)C[C@H]4C=N5)c(OC)cc3C(=O)N2C1` [Pyrrolobenzodiazepines]: in the data set on NCI 60 cell line panel [5], the “Mean TGI cytostatic” value is reported as 302 nM and the GI50 was 0.007 µM.

In the case of `CC1=C(CCCNC(=O)NCCO)C2=C(C)C3(CC3)[C@@](C)(O)C(=O)C2=C1` [compound 280], the IC50 in the data set with MV522 cell line [1] is less than 80 nM; in the data set on 8392B cell line [2], greater than 83000 nM; with 8392B cell line [4] (setting [11]), greater than 2800 nM.

In the case of `CC1=C(CCCOC(=O)[C@@H]2CCCN2C(=O)[C@H](CO)NC(=O)OC(C)(C)C)C2=C(C)C3(CC3)[C@@](C)(O)C(=O)C2=C1` [compound 208], the IC50 worked out at 930 ± 160 nM in the data set on MV522 cell line [1] and 25000 nM with 8392B cell line [2].

`CCCCCCCC/C=C/CCCCCCCC(=O)OCC1=C(C)C=C2C(=O)[C@](C)(O)C3(CC3)C(C)=C21` [compound 226]: the IC50 in the data set with MV522 cell line [1], in the data set with 8392B cell line [2], in the data set on MV522 cell line [3] (setting [10]) and in the data set on 8392B cell line [4] (setting [11]) was greater than 59000 nM throughout.

In the case of `CC1=C(CNC(=O)NCCO)C2=C(C)C3(CC3)[C@@](C)(O)C(=O)C2=C1` [compound 279], the figures for the IC50 in the data set on MV522 cell line [1], in the data set on 8392B cell line [2] and in the data set with 8392B cell line [4] (setting [11]) were 190 ± 20 nM, greater than 90000 nM and greater than 9000 nM, respectively.

Take `CC1=C(CNC(=O)NO)C2=C(C)C3(CC3)[C@@](C)(O)C(=O)C2=C1` [compound 277]: the figures for the IC50 in the data set with MV522 cell line [1], in the data set with 8392B cell line [2] and in the data set on 8392B cell line [4] (setting [11]) were 190 ± 20 nM, 31000 nM and 9800 nM, respectively.

As for `CC(=O)N1C[C@H](O)C[C@H]1C(=O)N[C@@H](CO)C(=O)N[C@@H](CO)C(=O)N[C@H](C(=O)N[C@@H](CCC(N)=O)C(=O)N[C@@H](CO)C(=O)N[C@@H](CO)C(=O)N1CCC[C@H]1C(=O)O[C@@H]1C2=C(C)C3(CC3)[C@@](C)(O)C(=O)C2=CC1(C)C)C1CCCCC1` [compound 216], the values for the IC50 in [8], in data set [9] and in data set [7] were 0.28 ± 0.06 µM, 0.19 ± 0.01 µM and 0.19 ± 0.03 µM, respectively.

With `CC1=C(CCCNS(=O)(=O)NO)C2=CC3(CC3)C(C)(O)C(=O)C2=C1` (stereo not drawn) [compound 265], the IC50 with MV522 cell line [1] was 8 ± 1 nM; in the data set on MV522 cell line [3] (setting [10]), 810 ± 20 nM.
